Values joined by “and” are separate entries in the source; they are usually repeats but may differ in a detail not shown here. Identical values can stand only once. HELM strings list units from the 5' end as sugar, base in round brackets, then linkage (d deoxyribose, r ribose, m 2'-O-methyl, p phosphodiester). Methylation of C is not given here. [moe] = 2'-O-(2-methoxyethyl) (MOE); [cEt] = constrained ethyl (cEt); [sp] = phosphorothioate linkage
Target: HBV
Settings: ASO

Substance | target mRNA inhibition (HepG2, 0.07 µM) | target mRNA inhibition (HepG2, 0.0092593 µM) | target mRNA inhibition (HepG2, 0.0277778 µM) | target mRNA inhibition (HepG2, 0.0833333 µM) | target mRNA inhibition (HepG2, 0.25 µM)
RNA1{[moe](C)[sp].[moe](T)[sp].d(G)[sp].d(G)[sp].d(A)[sp].d(G)[sp].d(C)[sp].d(C)[sp].d(A)[sp].d(C)[sp].d(C)[sp].[moe](A)[sp].[moe](G)[sp].[moe](C)[sp].[moe](A)[sp].[moe](G)}$$$$V2.0 | 57% and 53% | – | – | – | –
RNA1{[moe](G)[sp].[cEt](A)[sp].[cEt](A)[sp].d(C)[sp].d(A)[sp].d(A)[sp].d(A)[sp].d(T)[sp].d(G)[sp].d(G)[sp].d(C)[sp].d(A)[sp].d(C)[sp].[cEt](T)[sp].[cEt](A)[sp].[moe](G)}$$$$V2.0 | 72% and 61% | – | – | – | –
RNA1{[moe](G)[sp].[cEt](A)[sp].[cEt](A)[sp].d(C)[sp].d(T)[sp].d(G)[sp].d(G)[sp].d(A)[sp].d(G)[sp].d(C)[sp].d(C)[sp].d(A)[sp].d(C)[sp].[cEt](C)[sp].[cEt](A)[sp].[moe](G)}$$$$V2.0 | 65% and 51% | – | – | – | –
RNA1{[moe](G)[sp].[cEt](A)[sp].[cEt](A)[sp].d(G)[sp].d(C)[sp].d(G)[sp].d(A)[sp].d(A)[sp].d(G)[sp].d(T)[sp].d(G)[sp].d(C)[sp].d(A)[sp].[cEt](C)[sp].[cEt](A)[sp].[moe](C)}$$$$V2.0 | 75% and 78% | – | – | – | –
RNA1{[moe](G)[sp].[cEt](A)[sp].[cEt](T)[sp].d(G)[sp].d(A)[sp].d(G)[sp].d(G)[sp].d(C)[sp].d(A)[sp].d(T)[sp].d(A)[sp].d(G)[sp].d(C)[sp].[cEt](A)[sp].[cEt](G)[sp].[moe](C)}$$$$V2.0 | 60% and 59% | – | – | – | –
RNA1{[moe](G)[sp].[cEt](A)[sp].d(G)[sp].d(G)[sp].d(T)[sp].d(G)[sp].d(A)[sp].d(A)[sp].d(G)[sp].d(C)[sp].d(G)[sp].d(A)[sp].[cEt](A)[sp].[moe](G)[sp].[cEt](T)[sp].[moe](G)}$$$$V2.0 | 75% and 82% | 17% | 40% | 65% | 79%
RNA1{[moe](G)[sp].[cEt](A)[sp].d(G)[sp].d(T)[sp].d(T)[sp].d(C)[sp].d(C)[sp].d(G)[sp].d(C)[sp].d(A)[sp].d(G)[sp].d(T)[sp].[cEt](A)[sp].[moe](T)[sp].[cEt](G)[sp].[moe](G)}$$$$V2.0 | 75% and 68% | – | – | – | –
RNA1{[moe](G)[sp].[cEt](C)[sp].[cEt](A)[sp].d(C)[sp].d(T)[sp].d(A)[sp].d(G)[sp].d(T)[sp].d(A)[sp].d(A)[sp].d(A)[sp].d(C)[sp].d(T)[sp].[cEt](G)[sp].[cEt](A)[sp].[moe](G)}$$$$V2.0 | 73% and 81% | 8% | 24% | 65% | 87%
RNA1{[moe](G)[sp].[cEt](C)[sp].d(A)[sp].d(G)[sp].d(T)[sp].d(A)[sp].d(T)[sp].d(G)[sp].d(G)[sp].d(A)[sp].d(T)[sp].d(C)[sp].[cEt](G)[sp].[moe](G)[sp].[cEt](C)[sp].[moe](A)}$$$$V2.0 | 83% and 90% | 25% | 44% | 77% | 89%
RNA1{[moe](G)[sp].[cEt](G)[sp].[cEt](C)[sp].d(A)[sp].d(G)[sp].d(A)[sp].d(G)[sp].d(G)[sp].d(T)[sp].d(G)[sp].d(A)[sp].d(A)[sp].d(A)[sp].[cEt](A)[sp].[cEt](A)[sp].[moe](G)}$$$$V2.0 | 50% and 49% | – | – | – | –
RNA1{[moe](G)[sp].[cEt](G)[sp].[cEt](C)[sp].d(A)[sp].d(T)[sp].d(A)[sp].d(G)[sp].d(C)[sp].d(A)[sp].d(G)[sp].d(C)[sp].d(A)[sp].d(G)[sp].[cEt](G)[sp].[cEt](A)[sp].[moe](T)}$$$$V2.0 | 75% and 64% | – | – | – | –
